Columns and labels:
[1] = system: imidazoline I2 receptors (I2-IR); assay: Competition binding against [3H]2-BFI, membranes from post-mortem human frontal cortex; conditions: for Ki: corresponds to pKiH, read-out: Ki of the high-affinity I2 site; for [3H]-2-BFI I2 pKi (One Site): monophasic fit; for [3H]-2-BFI I2 pKi (Two Sites), high affinity (pKiH) / [3H]-2-BFI I2 pKi (Two Sites), low affinity (pKiL): two-site model; for [3H]-2-BFI I2 pKi (Two Sites), high affinity (pKiH): high-affinity site; for [3H]-2-BFI I2 pKi (Two Sites), low affinity (pKiL): low-affinity site
Source text: The inhibition constant (Ki) for each compound was obtained and is expressed as the corresponding pKi. The selectivity for these two receptors was expressed by the I2/α2 index, calculated as the antilogarithm of the […] between pKi values for I2-IR and pKi values for α2-AR.
Preparation of cellular membranes.
Human brain samples were obtained at autopsy in the Basque Institute of Legal Medicine, Bilbao, Spain. Samples from the prefrontal cortex (Brodmann’s area 9) were dissected at the time of autopsy and immediately stored at -70 °C until assay. The study was developed in compliance with policies of research and ethical review boards for postmortem brain studies.
To obtain cellular membranes (P2 fraction) the different samples were homogenized using an ultraturrax in 10 volumes of homogenization buffer (0.25 M sucrose, 5 mM Tris–HCl, pH 7.4).
The crude homogenate was centrifuged for 5 min at 1000 g (4 °C) and the supernatant was centrifuged again for 10 min at 40,000 g (4 °C). The resultant pellet was washed twice in 5 volumes of homogenization buffer and recentrifuged in similar conditions. Protein content was measured according to the method of Bradford using BSA as standard.
Competition Binding Assays.
The pharmacological activity of the compounds was evaluated through competition binding studies against the I2-IR selective radioligand [3H]2-BFI or the α2-adrenergic receptor selective radioligand [3H]RX821002. Specific binding was measured in 0.25 mL aliquots (50 mM Tris-HCl, pH 7.5) containing 100 µg of membranes, which were incubated in 96-well plates either with […]
Incubations were terminated by separating free ligand from bound ligand by rapid filtration […]
counted for radioactivity by liquid scintillation spectrometry using a MicroBeta TriLux counter (PerkinElmer). Specific binding was determined and plotted as a function of the compound concentration. Nonspecific binding was determined in the presence of idazoxan (10–5 M), a compound with well stablished affinity for I2-IR and α2-adrenergic receptors, in [3H]2-BFI and [3H]RX821002 assays. To obtain the inhibition constant (Ki) analyses of competition experiments were performed by nonlinear regression using the GraphPad Prism program. Ki values were normalized to pKi values. I2-IR/α2 selectivity index was calculated as the antilogarithm of the difference between pKi values for I2-IR and pKi values for α2-ARs.

[2] = PAMPA-BBB permeation assay; assay type: in vitro ADME, porcine; conditions: pig, PBS/EtOH (70:30), mean ± SD, read-out: Permeability Pe
Protocol: In vitro Blood-Brain Barrier Permeation Assay
To evaluate the brain penetration of the different compounds, a parallel artificial membrane permeation assay for blood-brain barrier was used, following the method described by Di et al.1 The in vitro permeability (Pe) of fourteen commercial drugs (see Table S1) through lipid extract of porcine brain membrane together with the test compounds were determined. Commercial drugs and assayed compounds were tested using a mixture of PBS:ETOH (70:30). Assay validation was made by comparing the experimental permeability with the reported values of the commercial drugs by bibliography and lineal correlation between experimental and reported permeability of the fourteen commercial drugs using the parallel artificial membrane permeation […]
From this equation and taking into account the limits established by Di et al. for BBB permeation, we established the ranges of permeability […]
predictive penetration in the CNS used as references.
1 Di, L.; Kerns, E. H.; Fan, K.; McConnell, O. J.; and Carter, G. T. High throughput artificial membrane permeability assay for blood-brain barrier.

HT-22 hippocampal cells = assay: Glutamate-induced damage in HT-22 cells (MTT viability, Griess nitrite); assay type: cell-based, mouse; conditions: HT-22, 10 mM glutamate; for neuroprotection (cell viability, MTT): 1 h pretreatment, LSL33 2 μM, LSL34 and LSL60101 1 μM; for nitrite production: culture supernatant
Protocol: In the study of neurotoxicity associated with AD, the HT22 mouse hippocampal neuronal cell line has been recognized as an effective cell model. HT22 cells were purchased from Merck-Sigma-Aldrich (SCC12, Madrid, Spain) and cultured in DMEM-F12 (Gibco, Fisher Scientific, Madrid, Spain) supplemented with foetal bovine serum (FBS, 10%) and 1% penicillin/streptomycin under standard conditions (37 °C, 5% CO2). The human dopaminergic cell line SH-SY5Y, in turn, has been widely used as an in vitro model to study the pathogenesis of PD associated with dopaminergic degeneration. Cells, acquired from the American Type Culture Collection (ATCC, Rockville, MD, USA, Ref.CRL-2266), were grown in RPMI medium (Gibco) supplemented with glutamine (2 mM), 10% FBS, and 1% penicillin/streptomycin under standard conditions. Semiconfluent cells (90%) were seeded on 96-well plates at 3 × 10^4 per well and incubated for 24 h before treatment.
Neuronal cultures, HT-22 and SH-SY5Y, seeded on 96-well plates were treated with LSL33, LSL34, and LSL60101 for 24 h, and viability was assessed using the MTT assay. […] Then, cultures were treated for 1h with LSL33 at 2 μM and LSL34 and LSL60101 at 1 μM. This dose was chosen based on previous studies. Subsequently, HT-22 cultures were exposed to glutamate (10 mM, Merck-Sigma), while SH-SY5Y cultures received 6-hydroxydopamine (6-OHDA, 35 μM, Merck-Sigma). The cells were then incubated for a minimum of 16 h. Finally, the cellular viability and nitrite production of the cultures were assessed.
The assessment of cell viability was conducted using the 3-(4,5-dimethylthiazol-2-yl)-5-(3-carboxymethoxyphenyl)-2-(4-sulfophenyl)-2H-tetrazolium (MTT) assay, following the instructions provided by the manufacturer (Roche Diagnostic, Darmstadt, Germany). Briefly, after exposure to glutamate or 6-OHDA, the cell culture medium was replaced with 100 μL of fresh culture medium containing MTT solution (0.5 mg/mL) and incubated for 1 h. The medium was then removed, and the resulting formazan crystals were dissolved in dimethylsulfoxide (DMSO, Merck-Sigma). The absorbance of the solution was measured at 595–650 nm using a spectrophotometer. The experiments were performed at least three times, and the results were expressed as a percentage of the control.
Following the designated treatments, 100 μL of the cell culture supernatant was mixed with an equal volume of Griess reagent (consisting of 1% sulfanylamide and 0.1% naphthyl ethylene diamine in 5% phosphoric acid, sourced from Sigma-Aldrich, Madrid, Spain) at room temperature for 15 min. To determine the nitrite concentrations, a standard solution of sodium nitrite was employed. The absorbance of the mixture was measured at 492/540 nm using a microplate reader from Thermofisher (Madrid, Spain). The experiments were repeated a minimum of three times.
Figure 4 In vitro screening of I2-IR ligands: Assessment of neuroprotective and anti-inflammatory effects HT-22 cells exposed to 10mM glutamate for at least 16 h Similarly, SH-SY5Y was damaged with 35 μM 6-OHDA (35 μM). Some cultures were pretreated with the I2-IR ligands. Cell viability was evaluated using the MTT assay, and nitrite production in the cell supernatant was quantified using the Griess reaction. The reported values represent the mean ± SD obtained from triplicate determinations repeated at least three times. Statistical analysis was performed: * p ≤ 0.05, ** p ≤ 0.01, *** p ≤ 0.001 (versus glutamate- or 6-OHDA-treated cultures); ^# p ≤ 0.05, ^### p ≤ 0.001 (versus idazoxan-treated cultures); ^& p ≤ 0.1, ^&&& p ≤ 0.001 (versus 2-BFI-treated cultures).

Structure (SMILES)	Selectivity I2/α2 ([1]; antilog (pKi I2-IR − pKi α2-AR))	Ki [1] [nM]	[3H]-2-BFI I2 pKi (One Site) [1]	[3H]-2-BFI I2 pKi (Two Sites), high affinity (pKiH) [1]	[3H]-2-BFI I2 pKi (Two Sites), low affinity (pKiL) [1]	Papp [2] [×10⁻⁶ cm/s]	neuroprotection (cell viability, MTT) (HT-22 hippocampal cells)	nitrite production (HT-22 hippocampal cells)
c1ccc2oc(-c3ncc[nH]3)cc2c1 [LSL60101, reference compound]	3090	6.7	6.67 ± 0.09	8.17 ± 0.19	6.02 ± 0.10	13.6 ± 0.4	potent neuroprotective effects	significant attenuation of the increased nitrite production
Cl.c1ccc2oc(-n3ccnc3)cc2c1 [LSL34, 1-(Benzofuran-2-yl)-1H-imidazole hydrochloride]	–	–	5.58 ± 0.31	9.23 ± 0.36	–	14.1 ± 0.5	potent neuroprotective effects	significant attenuation of the increased nitrite production
Cl.c1ccc2sc(-c3ncc[nH]3)cc2c1 [LSL33, 2-(Benzo[b]thiophene-2-yl)-1H-imidazole hydrochloride]	–	0.079	5.95 ± 0.24	10.1 ± 0.57	5.68 ± 0.25	8.1 ± 0.4	potent neuroprotective effects	significant attenuation of the increased nitrite production

Reference: paper PMC10610545, “Preclinical Evaluation of an Imidazole-Linked Heterocycle for Alzheimer’s Disease” (Pharmaceutics, 2023)
